Broadly, the ED50 is the dose that gives a 50% effect, or the effect in half of the subjects.

The source of these data is patent US4478845A, “Antiinflammatory and/or analgesic imidazoimidazoles” (E. I. Du Pont de Nemours and Company, priority 1983, dated 1984).

Assay [1] concerns phenylquinone-induced writhing in mice. Put plainly: Phenylquinone Writhing Test. The class given is in vivo, female white mice. The conditions noted are these: Mus musculus, read-out: Phenylquinone Writhing (PQW) ED50. Here is the method: A test compound suspended in 1% methylcellulose was given orally to fasted (17-21 hours) female white mice, 5-20 animals per double blind test. Aqueous (0.01% phenyl-p-benzoquinone) phenylquinone, 0.20 ml per mouse, was injected intraperitoneally 6 minutes before observations were begun.

The subject of assay [2] is adjuvant-induced arthritis in rats (paw volume). Nature of the assay: Established Adjuvant-Induced Arthritis in Rats. The class given is in vivo, Charles River Lewis male rats. The conditions noted are these: for ED50: Rattus norvegicus, read-out: Adjuvant Arthritic ED50; for percent reduction in paw volume at the indicated dose: at 45 (mg/kg).
The mark [3] stands for this setting: oral, rats, 7 daily doses, ED50% decrease from control paw volume (uninjected, left hind paw).
Where [4] appears, read: oral, fasted female mice, effective analgesic dose for 50% of the mice.

The structures appear in SMILES notation. Where two headings read alike, the source gives them in different places. Some results are limits rather than exact numbers.

Take `CC1=NC(C(F)(F)F)(C(F)(F)F)c2nc(-c3ccc(F)cc3)c(-c3ccc(F)cc3)n21` [Example 1, 2,3-bis(4-Fluorophenyl)-5-methyl-7,7-bis(trifluoromethyl)imidazo[1,5-a]imidazole]: the ED50 in assay [1] (po) stood at 135 mg/kg; in assay [2] (setting [3]), 6.5 mg/kg.

With `CCCCC1C(=O)N(c2ccccc2)N(c2ccccc2)C1=O` [Phenylbutazone], the values for the ED50 in assay [1] (setting [4]) and in assay [2] (setting [3]) were 80 mg/kg and 10 mg/kg, respectively.

For the compound `CC(C)Cc1ccc(C(C)C(=O)O)cc1` (stereo not shown) [Ibuprofen], the ED50 amounted to 10 mg/kg in assay [1] (setting [4]) and 100 mg/kg in assay [2] (setting [3]).

As to `COc1ccc(-c2nc3n(c2-c2ccc(OC)cc2)C(C)=NC3(C(F)(F)F)C(F)(F)F)cc1` [Example 2, 2,3-bis(4-Methoxyphenyl)-5-methyl-7,7-bis(trifluoromethyl)imidazo[1,5-a]imidazole], in assay [1] (setting [4]), the ED50 is 21 mg/kg. Also, the “percent reduction in paw volume at the indicated dose” value in assay [2] (oral, rats, 7 daily doses) came to 31%.

`CC(=O)Oc1ccccc1C(=O)O` [Aspirin]: the ED50 in assay [2] (po) is 305 mg/kg.

In the case of `CC1=NC(C(F)(F)F)(C(F)(F)F)c2nc(-c3ccc(C)cc3)c(-c3ccc(C)cc3)n21` [Example 3, 2,3-bis(4-Methylphenyl)-5-methyl-7,7-bis(trifluoromethyl)imidazo[1,5-a]imidazole], the ED50 in assay [1] (setting [4]) was over 108 mg/kg. In addition, in assay [2] (oral, rats, 7 daily doses), the “percent reduction in paw volume at the indicated dose” value came out at 44%.

For `COc1ccc2c(c1)c(CC(=O)O)c(C)n2C(=O)c1ccc(Cl)cc1` [Indomethacin], the values for the ED50 in assay [1] (po) and in assay [2] (po) were 0.35 mg/kg and 0.3 mg/kg, respectively.
